Laboratory results from ChEMBL document CHEMBL3112452, “Neutral β-Lactams Inactivate High Molecular Mass Penicillin-Binding Proteins of Class B1, Including PBP2a of MRSA” (ACS Med Chem Lett, 2014).
Converted amounts (≈) assume the structure as drawn.

Legend:
[1] = Inhibition of Staphylococcus aureus PBP2a
[2] = tested on: Bacillus subtilis; test: Antimicrobial activity against wild type Bacillus subtilis 168 after 18 hrs by serial dilution method; assay type: functional; details: subsp. subtilis str. 168, 18 h
[3] = Inhibition of Escherichia coli PBP1a/1b after 30 mins by SDS-PAGE
[4] = biological target: T1, D-alanyl-D-alanine carboxypeptidase DacA (Bacillus subtilis (strain 168), UniProt P08750); test: Inhibition of Bacillus subtilis 168 PBP5 after 30 mins by SDS-PAGE; design: species or system Bacillus subtilis subsp. subtilis str. 168
T1 sequence (P08750 whole entry): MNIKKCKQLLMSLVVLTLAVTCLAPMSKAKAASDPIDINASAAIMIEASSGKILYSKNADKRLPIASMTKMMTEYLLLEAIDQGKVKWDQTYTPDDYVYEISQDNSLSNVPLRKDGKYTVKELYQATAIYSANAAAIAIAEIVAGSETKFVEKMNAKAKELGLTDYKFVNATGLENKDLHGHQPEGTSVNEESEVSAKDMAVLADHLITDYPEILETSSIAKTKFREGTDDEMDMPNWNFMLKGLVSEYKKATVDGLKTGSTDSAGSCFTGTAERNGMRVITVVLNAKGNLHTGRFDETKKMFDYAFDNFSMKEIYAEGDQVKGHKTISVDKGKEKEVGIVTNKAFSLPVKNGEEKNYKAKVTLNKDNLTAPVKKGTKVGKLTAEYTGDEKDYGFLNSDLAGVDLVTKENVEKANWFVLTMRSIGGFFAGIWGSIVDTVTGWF

[5] = Inhibition of Escherichia coli BL21(DE3) PBP2 after 30 mins by SDS-PAGE
[6] = Inhibition of Escherichia coli PBP3 after 30 mins by SDS-PAGE
[7] = Inhibition of Bacillus subtilis 168 PBP2 after 30 mins by SDS-PAGE; design: species or system Bacillus subtilis subsp. subtilis str. 168
[8] = biological target: T2, Penicillin-binding protein 3 (Bacillus subtilis (strain 168), UniProt P42971); test: Inhibition of Bacillus subtilis 168 PBP3 after 30 mins by SDS-PAGE; design: species or system Bacillus subtilis subsp. subtilis str. 168
T2 sequence (P42971 whole entry): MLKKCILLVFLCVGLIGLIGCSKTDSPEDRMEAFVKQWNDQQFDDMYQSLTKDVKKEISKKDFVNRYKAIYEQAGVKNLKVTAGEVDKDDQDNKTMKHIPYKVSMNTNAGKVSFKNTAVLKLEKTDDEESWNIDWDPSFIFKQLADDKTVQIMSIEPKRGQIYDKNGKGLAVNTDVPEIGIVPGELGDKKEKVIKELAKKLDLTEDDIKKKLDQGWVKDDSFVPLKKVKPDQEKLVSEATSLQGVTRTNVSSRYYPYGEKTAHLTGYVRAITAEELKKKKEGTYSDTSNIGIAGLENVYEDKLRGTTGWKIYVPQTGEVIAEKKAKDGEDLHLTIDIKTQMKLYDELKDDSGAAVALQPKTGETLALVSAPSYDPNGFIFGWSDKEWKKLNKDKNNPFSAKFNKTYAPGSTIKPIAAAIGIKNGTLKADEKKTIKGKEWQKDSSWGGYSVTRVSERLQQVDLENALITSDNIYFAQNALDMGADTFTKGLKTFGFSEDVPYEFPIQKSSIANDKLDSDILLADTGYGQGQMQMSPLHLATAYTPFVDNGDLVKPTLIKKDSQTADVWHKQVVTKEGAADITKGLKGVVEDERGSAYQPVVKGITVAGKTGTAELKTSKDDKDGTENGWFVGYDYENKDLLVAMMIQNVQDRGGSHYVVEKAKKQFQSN

[9] = biological target: T3, Penicillin-binding protein 4 (Bacillus subtilis (strain 168), UniProt P40750); test: Inhibition of Bacillus subtilis 168 PBP4 after 30 mins by SDS-PAGE; design: species or system Bacillus subtilis subsp. subtilis str. 168
T3 sequence (P40750 whole entry): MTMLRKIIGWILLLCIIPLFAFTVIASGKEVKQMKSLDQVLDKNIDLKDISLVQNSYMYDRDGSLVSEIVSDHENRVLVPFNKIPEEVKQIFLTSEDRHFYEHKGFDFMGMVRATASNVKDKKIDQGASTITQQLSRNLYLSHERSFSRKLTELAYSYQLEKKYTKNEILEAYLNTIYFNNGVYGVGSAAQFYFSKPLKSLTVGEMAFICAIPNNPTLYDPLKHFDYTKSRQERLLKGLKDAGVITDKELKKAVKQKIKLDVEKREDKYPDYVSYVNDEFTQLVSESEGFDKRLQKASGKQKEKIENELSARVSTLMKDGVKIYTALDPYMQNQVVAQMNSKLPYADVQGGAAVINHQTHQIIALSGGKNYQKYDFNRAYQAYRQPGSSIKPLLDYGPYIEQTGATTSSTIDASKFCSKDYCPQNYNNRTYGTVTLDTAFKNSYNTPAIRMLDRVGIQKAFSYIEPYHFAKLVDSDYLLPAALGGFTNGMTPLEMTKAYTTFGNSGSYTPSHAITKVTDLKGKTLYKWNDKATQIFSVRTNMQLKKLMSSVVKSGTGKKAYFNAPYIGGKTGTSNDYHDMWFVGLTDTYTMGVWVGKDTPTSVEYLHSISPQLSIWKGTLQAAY

[10] = Inhibition of Escherichia coli PBP4 after 30 mins by SDS-PAGE
[11] = Inhibition of Escherichia coli PBP5/6 after 30 mins by SDS-PAGE
[12] = Inhibition of Bacillus subtilis 168 PBP1 after 30 mins by SDS-PAGE; design: species or system Bacillus subtilis subsp. subtilis str. 168
[13] = tested on: Staphylococcus epidermidis; test: Antimicrobial activity against wild type Staphylococcus epidermidis ATCC 12228 after 18 hrs by serial dilution method; assay type: functional; details: ATCC 12228, 18 h
[14] = tested on: Escherichia coli; test: Antimicrobial activity against wild type Escherichia coli MM 294 after 18 hrs by serial dilution method; assay type: functional; details: MM 294, 18 h
[15] = tested on: Bacillus licheniformis; test: Antimicrobial activity against Bacillus licheniformis NRS 1264 after 18 hrs by serial dilution method; assay type: functional; details: NRS 1264, 18 h

| SMILES | Second-order inactivation rate constant (kinact/Ki) [1] | MIC [2] | Ki [3] | Ki [4] | Ki [5] | Ki [6] | Ki [7] | Ki [8] | Ki [9] | Ki [10] | Ki [11] | Ki [12] | MIC [13] | MIC [14] | MIC [15] | kinact/Ki [7] | kinact/Ki [12] |
| --- | --- | --- | --- | --- | --- | --- | --- | --- | --- | --- | --- | --- | --- | --- | --- | --- | --- |
| CC1=CN2C(=O)[C@@H](NC(=O)[C@H](N)c3ccccc3)[C@H]2SC1 | 0.34 M⁻¹ s⁻¹ |  |  |  |  |  |  |  |  |  |  |  |  |  |  |  |  |
| CC(=O)OCC1=C(C(N)=O)N2C(=O)[C@@H](NC(=O)Cc3cccs3)[C@H]2SC1 | 1.3 M⁻¹ s⁻¹ |  |  |  |  |  |  |  |  |  |  |  |  |  |  |  |  |
| COC(=O)[C@@H]1N2C(=O)[C@@H](NC(=O)COc3ccccc3)[C@H]2SC1(C)C | 1.5 M⁻¹ s⁻¹ | 25 µM (≈ 9.11 µg/mL) |  |  |  |  |  |  |  |  |  |  |  |  |  |  |  |
| CC1(C)S[C@@H]2[C@H](NC(=O)COc3ccccc3)C(=O)N2[C@H]1C(N)=O | 2 M⁻¹ s⁻¹ | 2.3 µM (≈ 0.804 µg/mL) | 0.74 M⁻¹ s⁻¹ | 17 M⁻¹ s⁻¹ | 1.5 M⁻¹ s⁻¹ | 18 M⁻¹ s⁻¹ | 440 M⁻¹ s⁻¹ | 5.3 M⁻¹ s⁻¹ | 190 M⁻¹ s⁻¹ | 30 M⁻¹ s⁻¹ | 0.6 M⁻¹ s⁻¹ | 340 M⁻¹ s⁻¹ | 95 µM (≈ 33.2 µg/mL) | 10000 µM (≈ 3490 µg/mL) | 1.5 µM (≈ 0.524 µg/mL) |  |  |
| CC1(C)S[C@@H]2[C@H](NC(=O)COc3ccccc3)C(=O)N2[C@H]1C(=O)O [PENICILLIN V] |  | 1400 µM (≈ 491 µg/mL) | 184 M⁻¹ s⁻¹ | 620 M⁻¹ s⁻¹ | 128 M⁻¹ s⁻¹ | 420 M⁻¹ s⁻¹ |  | 28 M⁻¹ s⁻¹ |  | 3200 M⁻¹ s⁻¹ | 96 M⁻¹ s⁻¹ |  | 370 µM (≈ 130 µg/mL) | 750 µM (≈ 263 µg/mL) | 1500 µM (≈ 526 µg/mL) | 19000 M⁻¹ s⁻¹ | 110000 M⁻¹ s⁻¹ |
